From article PMC7870626, “Neurotoxicity and underlying cellular changes of 21 mitochondrial respiratory chain inhibitors” (Archives of Toxicology, 2021)
Where two headings read alike, the source gives them in different places.

What was measured:
U2OS cells = assay: cells; assay type: cell-based; conditions: Homo sapiens; U2OS osteosarcoma cells, 24 h, luminescence of constitutively expressed luciferase; read-out: Cytotox EC25 U2OS (converted)
Protocol: A cell suspension of 100,000 cells/ml was prepared in assay medium, and white 384-well plates were filled with 30 µl/well cell suspension. Twenty-four hours after seeding, a dilution series of test compound, as well as positive and negative controls, were added to the cells. After 24 h exposure, the medium was removed, and 10 µl of Triton X-100 lysis buffer was added to each well. The luminescent signal was determined in a luminometer by injecting BDS Illuminate Mix and measuring the light emission. The Cytotox CALUX cell line constitutively expresses a high level of luciferase protein; the light emission is therefore proportional to the cell number of live cells, and its decrease can be used as measure of cytotoxicity. The light emission generated by cells exposed to vehicle control was set to 100%, and the luminescence of cells exposed to the positive control toxicant tributyltin acetate [100 µM] was set to 0%. The light output of the cells exposed to different concentrations of test compounds was scaled accordingly.

LUHMES cells [1] = assay: NeuriTox test: neurite area and viability, 24 h; assay type: cell-based, human; conditions: for EC25: Homo sapiens
Protocol: (§1) The NeuriTox test was performed as previously described (Delp et al. [2018b]; Krug et al. [2013a]; Stiegler et al. [2011]). Briefly, cells differentiated for 48 h were re-seeded into 96-well plates at a density of 100,000 cells/cm^2 in DM without cAMP and GDNF, and treated 1 h after seeding for 24 h. Subsequently, multiple endpoints were determined, e.g., neurite outgrowth (i.e., NeuriTox test), resazurin reduction, intracellular ATP content, gene expression levels from TempO-Seq analysis, and proteasomal activity. For the 120 h exposure scenario, LUHMES cells were differentiated for another 3 days after reseeding before they were treated on day 5 (d5) and d7 by a half medium exchange. Endpoints were determined on d10 of differentiation.
Image acquisition and analysis was performed as described previously (Krug et al. [2013a]; Schildknecht et al. [2013]; Stiegler et al. [2011]). In brief, cells were live-stained with 1 µg/ml Hoechst H-33342 and 1 µM calcein-AM and image acquisition was done by an automated high content imager (Cellomics, Waltham, MA, USA). Cell viability was determined as ratio of live cells (cell bodies being Calcein- and Hoechst-positive) relative to the total amount of cells (Hoechst-positive cell bodies). Neurite area was calculated by subtracting the somatic area (Hoechst-positive area plus surrounding) from the calcein-positive area.

LUHMES cells [2] = assay: Intracellular ATP content after NeuriTox exposure; assay type: cell-based; conditions: Homo sapiens; NeuriTox exposure scheme, 24 h; read-out: LUHMES 24 h EC25 ATP (converted)
Protocol: as §1
Plates from the NeuriTox test were further used after imaging for determination of alternative endpoints. Intracellular ATP was determined as described earlier (Delp et al. [2019]). In brief, CellTiterGlo 2.0 assay mix (Promega) containing luciferase was added after imaging, and luminescence was recorded. For the determination of resazurin reduction, a 10 × resazurin stock solution was added after imaging to the medium (final resazurin concentration 2 µg/ml) (Delp et al. [2018a]). After 60 min incubation, resazurin fluorescence was recorded (ex: 530 nm, em: 590 nm). Background-corrected data was used for further analysis.

HepG2 cells = assay: HepG2-based respirometry, total cell respiration (earlier study); conditions: NeuriTox neurite EC25 relative to cell respiration EC25; respirometric data from HepG2-based assays ref van der Stel et al. 2020
[3] = test system: MRC complex (cI, cII or cIII); assay: HepG2-based MRC complex assay in permeabilized cells (earlier study); assay type: cell-based; conditions: NeuriTox neurite EC25 relative to complex assay EC25 in permeabilized cells; respirometric data from HepG2-based assays ref van der Stel et al. 2020
SH-SY5Y cells = assay: Mitochondrial membrane potential (rhodamine 123), KE2 assay; assay type: cell-based, human; conditions: for Ratios of EC25 KE4/KE2 MMP: NeuriTox neurite EC25 relative to SH-SY5Y MMP EC25
Protocol: Cells were plated at a cell density of 29,500 cells/cm^2 and handled as described above for the neurite SH-SY5Y degeneration. On d6 of differentiation, 50% of the medium was replaced by differentiation medium containing 2 µM Rhodamine 123 (ThermoFisher). After 45 min of preloading at 37 °C with 5% CO2 in darkness, the Rhodamine 123 solution was completely removed and cells were carefully washed once with 200 µl DMEM:F12. Subsequently, 50 µl differentiation medium per well were added followed by the addition of 50 µl/well of test compounds in medium. After 24 h of exposure to the test compounds, the nuclei were stained for 30 min with 20 µL of a solution containing 20 µM Hoechst 33342, and the images were then acquired with a 10 × objective lens using the ImageXpress® Micro (Molecular Devices) high content microplate imager. Nuclei were evaluated in the DAPI channel (excitation 377 ± 50 nm, emission 447 ± 60 nm), whereas Rhodamine 123 fluorescence was detected in the FITC channel (excitation 475 ± 34 nm, emission 536 ± 40 nm). Analysis of the Hoechst 33,342 and Rhodamine 123 fluorescence was performed using the MetaXpress® Software (Molecular Devices) with the Transfluor HT plug-in and the parameters nuclei (for Hoechst-33342) and integrated granule intensity (for Rhodamine 123). Mitochondrial membrane potential (MMP) was quantified as the total fluorescence intensity of Rhodamine 123 in relation to the number of Hoechst-stained nuclei.

LUHMES cells [4] = assay type: cell-based, human; conditions: 24 h, vs 0.1% DMSO; for log2FoldChange AARS: gene AARS; for log2FoldChange AASDHPPT: gene AASDHPPT; for log2FoldChange AATF: gene AATF; for log2FoldChange ABCA1: gene ABCA1; for log2FoldChange ABCA6: gene ABCA6
Protocol: Cells were cultured and treated as described above for the NeuriTox assay. On d3, after 24 h treatment, culture medium was replaced by 33 µl/well 1 × Biospyder lysis buffer. After 15 min at room temperature, plates were sealed and frozen at -80 °C to complete lysis. Samples were analyzed at Bioclavis (Glasgow) using the TempO-Seq technique and the EU-ToxRisk v2.0 gene probe panel covering ca. 3000 genes (Yeakley et al. [2017]). All genes are listed in the supplementary excel file (containing also all gene regulations). Briefly, a 50 bp fragment of the target gene was amplified. The amplification step also introduced sample-specific barcodes. This allowed pooling of all samples and standard next-generation sequencing of the ensemble. Afterward, adapters were used to allocate the sequenced fragments to the correct samples. Finally, the alignment of all sequenced fragments (FASTQ files) for each sample to the collection of reference 50 bp oligonucleotides was performed for the quantification of reads per gene, also known as the read count values. In a pre-filtering step, samples with a total count < 0.2 million and genes with an average count < 1.5 were removed.
To correct for both read depth and RNA composition, the DESeq2′s median of ratios normalization was applied. The analysis of differentially expressed genes (DEG) of each treatment against the control group was done by the Wald test implemented in DESeq2/R (Love et al. [2014]), including an FDR correction for p-adjusted ≤ 0.05. […] A curve was fit through these concentration–response data to obtain EC10DEG. For comparability, all DEG data were normalized to a positive control. […] The EC10DEG was calculated using an established online open access BMC calculator (BMCeasy) (Krebs et al. [2020]).

proteasome = assay: Proteasomal activity (KE3 assay) in LUHMES cells; assay type: cell-based, human; conditions: NeuriTox neurite EC25 relative to proteasomal activity EC25, LUHMES
Protocol: Activity of the proteasome was quantified as described in (Gutbier et al. [2018b]). Briefly, after exposure, culture medium was replaced by assay buffer containing a cell-permeable proteasomal substrate (MeOSuc-Gly-Leu-Phe-AMC, 25 µM (Bachem, Bubendorf, Switzerland) in HBSS). Its AMC-fluorescence (ex: 360 nm, em: 465 nm) increases with proteasomal activity and was monitored for 90 min. Background-corrected data were used for further analysis.

[5] = NeuriTox exposure scheme, 24 h, read-out: LUHMES 24 h EC25 NA (neurite area) (converted)
[6] = NeuriTox exposure scheme, 24 h, read-out: LUHMES 24 h EC25 V (viability) (converted)
[7] = NeuriTox test, neurite outgrowth impairment, LUHMES 24 h

Compound	EC25 (U2OS cells) [µM]	EC25 (LUHMES cells [1]; [5]) [µM]	EC25 (LUHMES cells [1]; [6]) [µM]	EC25 (LUHMES cells [2]) [µM]	Ratios of EC25 KE4/KE1 total respiration (HepG2 cells)	Ratios of EC25 KE4/KE1 complex assay [3]	Ratios of EC25 KE4/KE2 MMP (SH-SY5Y cells)	also measured
CC(C)(C)c1ccc(CSc2cnn(C(C)(C)C)c(=O)c2Cl)cc1 [Pyridaben]	> 100	63.1	> 100	79.4	40–60	≥ 800	–	–
CC(C)Oc1cccc(NC(=O)c2ccccc2C(F)(F)F)c1 [Flutolanil]	> 100	79.4	> 100	79.4	–	–	–	–
CCc1nn(C)c(C(=O)NCc2ccc(C(C)(C)C)cc2)c1Cl [Tebufenpyrad]	> 100	20	20	12.6	126	1000	5.6	EC25 (LUHMES cells [1]; NeuriTox test, neurite outgrowth impairment, LUHMES 24 h, read-out: EC25 KE4 (AO) Neurite toxicity (converted)): 20 µM; EC25 (SH-SY5Y cells; Homo sapiens, SH-SY5Y differentiated 6 days, treated 24 h, rhodamine-123, read-out: pEC25 MMP (concentration where MMP was reduced by 25%) (converted)): 3.16 µM; log2FoldChange AARS (LUHMES cells [4]; 0.09 µM): -0.0653 log2; log2FoldChange AASDHPPT (LUHMES cells [4]; 0.09 µM): 0.0475 log2; log2FoldChange AATF (LUHMES cells [4]; 0.09 µM): 0.19 log2; log2FoldChange ABCA1 (LUHMES cells [4]; 0.09 µM): -0.37 log2; log2FoldChange ABCA6 (LUHMES cells [4]; 0.09 µM): 0.84 log2
CO/C=C(/C(=O)OC)c1ccccc1COc1cccc(C(F)(F)F)n1 [Picoxystrobin]	–	–	–	–	63	31.6	4.7	EC25 KE4 (AO) Neurite toxicity (LUHMES cells [1]; [7]): 4.4 -log[M]; log2FoldChange AARS (LUHMES cells [4]; 0.10 µM): -0.76 log2; log2FoldChange AASDHPPT (LUHMES cells [4]; 0.10 µM): 1.04 log2; log2FoldChange AATF (LUHMES cells [4]; 0.10 µM): -0.34 log2; log2FoldChange ABCA1 (LUHMES cells [4]; 0.10 µM): -0.73 log2; log2FoldChange ABCA6 (LUHMES cells [4]; 0.10 µM): 1.05 log2
CO/N=C(/C(=O)OC)c1ccccc1CO/N=C(\C)c1cccc(C(F)(F)F)c1 [Trifloxistrobin]	–	–	–	–	≥ 10	–	–	–
CO/N=C(/C(=O)OC)c1ccccc1COc1ccccc1C [Kresoxim-methyl]	> 100	50.1	39.8	31.6	≥ 10	–	–	–
Cc1occc1C(=O)Nc1ccccc1 [Fenfuram]	> 100	> 100	> 100	> 100	–	–	–	–
CC(C)(C)c1ccc(CCOc2ncnc3ccccc23)cc1 [Fenazaquin]	> 100	10	15.8	10	40–60	≥ 800	–	–
CO/C=C(/C(=O)OC)c1ccccc1Oc1cc(Oc2ccccc2C#N)ncn1 [Azoxystrobin]	–	–	–	–	10.0	4.0	9.8	EC25 KE4 (AO) Neurite toxicity (LUHMES cells [1]; [7]): 4.5 -log[M]; Ratios of EC25 KE4/KE3 proteasomal (proteasome): 0.9; log2FoldChange AARS (LUHMES cells [4]; 0.10 µM): -0.16 log2; log2FoldChange AASDHPPT (LUHMES cells [4]; 0.10 µM): 0.0857 log2; log2FoldChange AATF (LUHMES cells [4]; 0.10 µM): -0.0134 log2; log2FoldChange ABCA1 (LUHMES cells [4]; 0.10 µM): -0.16 log2; log2FoldChange ABCA6 (LUHMES cells [4]; 0.10 µM): -1.97 log2
CSC1=N[C@@](C)(c2ccccc2)C(=O)N1Nc1ccccc1 [Fenamidone]	> 100	> 50.1	> 50.1	> 50.1	≥ 10	–	–	–
